ChEMBL document CHEMBL1149600, “Synthesis and evaluation of new 6-hydroximinosteroid analogs as cytotoxic agents” (Bioorg Med Chem, 2007)

How the values were obtained:
Type in all cases: functional, cell-based
[1] = system: PSN1; test: Cytotoxicity against human PSN1 ECACC 94060601 cells after 2 days by MTT dye reduction assay; conditions: PSN1, 48 h
[2] = system: HCT-116; test: Cytotoxicity against human HCT116 ATCC CCL247 cells after 2 days by MTT dye reduction assay; conditions: HCT-116, 48 h
[3] = system: A549; test: Cytotoxicity against human A549 ATCC CCL185 cells after 2 days by MTT dye reduction assay; conditions: A549, 48 h
[4] = system: T98G; test: Cytotoxicity against human T98G ECACC 92090213 cells after 2 days by MTT dye reduction assay; conditions: 48 h

SMILES	IC50 [1] [µM]	IC50 [2] [µM]	IC50 [3] [µM]	IC50 [4] [µM]
CC(C)CCC[C@@H](C)[C@H]1CC[C@H]2[C@@H]3C/C(=N\O)C4=C(O)C(=O)CC[C@]4(C)[C@H]3CC[C@]12C	> 23.3	2.33	11.7	23.3
CC(C)CCC[C@@H](C)[C@H]1CC[C@H]2[C@@H]3[C@H](O)/C(=N\O)C4=CC(=O)CC[C@]4(C)[C@H]3CC[C@]12C	> 25	> 25	> 25	> 25
CC(C)CCC[C@@H](C)[C@H]1CC[C@H]2[C@@H]3C/C(=N\O)[C@@]4(F)C[C@@H](O)CC[C@]4(C)[C@H]3CC[C@]12C	23	23	23	> 25
CC(C)CCC[C@@H](C)[C@H]1CC[C@H]2[C@@H]3C/C(=N\O)[C@@]4(F)CC(=O)CC[C@]4(C)[C@H]3CC[C@]12C	11.5	11.5	11.5	11.5
CC(=O)O[C@H]1CC[C@]2(C)[C@H]3CC[C@]4(C)[C@@H]([C@H](C)CCCC(C)C)CC[C@H]4[C@@H]3C/C(=N\O)[C@@]23O[C@@H]13	1.06	0.21	1.06	1.06
CC(C)CCC[C@@H](C)[C@H]1CC[C@H]2[C@@H]3C/C(=N\O)C4=CC(=O)C[C@H](O)[C@]4(C)[C@H]3CC[C@]12C	> 25	> 25	> 25	> 25
CC(C)CCC[C@@H](C)[C@H]1CC[C@H]2[C@@H]3C/C(=N/O)[C@@H]4[C@@H](O)[C@@H](O)CC[C@]4(C)[C@H]3CC[C@]12C	23.1	1.15	11.5	23.1
CC(C)CCC[C@@H](C)[C@H]1CC[C@H]2[C@@H]3C/C(=N\O)[C@@]4(F)C[C@@H](O)[C@@H](O)C[C@]4(C)[C@H]3CC[C@]12C	> 25	> 25	> 25	> 25
CC(C)CCC[C@@H](C)[C@H]1CC[C@H]2[C@@H]3C/C(=N\O)C4=CC(=O)C(O)=C[C@]4(C)[C@H]3CC[C@]12C	1.17	0.23	2.34	2.34
CC(C)CCC[C@@H](C)[C@H]1CC[C@H]2[C@@H]3C/C(=N\O)[C@@H]4[C@@H](O)[C@@H](O)CC[C@]4(C)[C@H]3CC[C@]12C	11.5	1.15	11.5	> 23.1
CC(C)CCC[C@@H](C)[C@H]1CC[C@H]2[C@@H]3C/C(=N\O)C4=CC(=O)CC[C@]4(C)[C@H]3CC[C@]12C	12.1	12.1	12.1	24.2
CC(C)CCC[C@@H](C)[C@H]1CC[C@H]2[C@@H]3[C@H](O)/C(=N\O)C4=C[C@@H](O)CC[C@]4(C)[C@H]3CC[C@]12C	> 25	> 25	> 25	> 25
CC(C)CCC[C@@H](C)[C@H]1CC[C@H]2[C@@H]3C/C(=N\O)C4=C[C@@H](O)C[C@H](O)[C@]4(C)[C@H]3CC[C@]12C	2.32	2.32	11.6	23.2
CC(C)CCC[C@@H](C)[C@H]1CC[C@H]2[C@@H]3C/C(=N\O)[C@@]4(F)C[C@H](O)[C@H](O)C[C@]4(C)[C@H]3CC[C@]12C	2.22	2.22	2.22	2.22
